Laboratory results published in patent publication US8076487B2, “Pyridone derivative and herbicide” (Kumiai Chemical Industry Co., Ltd., priority 2006, dated 2011).

Tests used:
Type in all cases: in vivo
[1] = system: early watergrass (Echinochloa oryzicola Vasing); assay: Test Example 1: herbicidal effect by soil application to paddy field; conditions: paddy field soil application; active ingredient 1,000 g per 1 hectare; wettable powder added dropwise to water surface the day after sowing; examined on the 21st day after application
Outline: (§1)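 Under greenhouse conditions, seeds sown on puddled paddy soil in 100 cm2 pots under 3 cm of standing water received the test compound; injury was assessed with a standard scoring scheme three weeks (day 21) after treatment.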

[2] = system: heartshape false pickerelweed (Monochoria vaginalis (Burm.f.) C.Presl); assay: as above; conditions: paddy field soil application; active ingredient 1,000 g per 1 hectare; wettable powder added dropwise to water surface the day after sowing; examined on the 21st day after application
Outline: as §1

[3] = system: Japanese bulrush (Scirpus juncoides Roxb.); assay: as above; conditions: paddy field soil application; active ingredient 1,000 g per 1 hectare; wettable powder added dropwise to water surface the day after sowing; examined on the 21st day after application
Outline: as §1

[4] = system: green foxtail (Setaria viridis (L.) P. Beauv.); assay: Test Example 3: herbicidal effect by application to upland field (foliage treatment); conditions: foliage treatment, 1,000 g active ingredient per 1 hectare, 14th day after application, greenhouse
Outline: (§2)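 Dose 1,000 g active ingredient/ha, sprayed as diluted wettable powder over entire plants two weeks after sowing in field soil. Kept in greenhouse; herbicidal effect graded on a standard scale on day 14.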

[5] = system: barnyardgrass (Echinochloa crus-galli (L.) P. Beauv. var. crus-galli); assay: as above; conditions: foliage treatment, 1,000 g active ingredient per 1 hectare, 14th day after application, greenhouse
Outline: as §2

[6] = system: slender amaranth (Amaranthus viridis L.); assay: as above; conditions: foliage treatment, 1,000 g active ingredient per 1 hectare, 14th day after application, greenhouse
Outline: as §2

[7] = system: velvetleaf (Abutilon theophrasti medicus); assay: as above; conditions: foliage treatment, 1,000 g active ingredient per 1 hectare, 14th day after application, greenhouse
Outline: as §2

Row | Structure (SMILES) | herbicidal effect, Echinochloa oryzicola Vasing [1] | herbicidal effect, Monochoria vaginalis (Burm. f.) C. Presl [2] | herbicidal effect, Scirpus juncoides Roxb. [3] | herbicidal effect, Green Foxtail [4] | herbicidal effect, Barnyardgrass [5] | herbicidal effect, Slender Amaranth [6] | herbicidal effect, Velvetleaf [7]
1 | Cn1ncc(C(=O)c2ccc(C(F)(F)F)n(-c3ccc(Cl)cc3)c2=O)c1O [IV-63] | 5 (90% or more of herbicidal effect and crop phytotoxicity) | 5 (90% or more of herbicidal effect and crop phytotoxicity) | 5 (90% or more of herbicidal effect and crop phytotoxicity) | 4 (70 to less than 90% of herbicidal effect and crop phytotoxicity) | 4 (70 to less than 90% of herbicidal effect and crop phytotoxicity) | 5 (90% or more of herbicidal effect and crop phytotoxicity) | 5 (90% or more of herbicidal effect and crop phytotoxicity)
2 | Cn1ncc(C(=O)c2ccc(C(F)(F)F)n(-c3ccc(OC(F)(F)F)cc3)c2=O)c1O [IV-67] | 5 (90% or more of herbicidal effect and crop phytotoxicity) | 5 (90% or more of herbicidal effect and crop phytotoxicity) | 5 (90% or more of herbicidal effect and crop phytotoxicity) | 4 (70 to less than 90% of herbicidal effect and crop phytotoxicity) | 4 (70 to less than 90% of herbicidal effect and crop phytotoxicity) | 5 (90% or more of herbicidal effect and crop phytotoxicity) | 5 (90% or more of herbicidal effect and crop phytotoxicity)
3 | Cn1ncc(C(=O)c2ccc(C(F)(F)F)n(-c3cccc(S(C)(=O)=O)c3)c2=O)c1O [IV-74] | 4 (70 to less than 90% of herbicidal effect and crop phytotoxicity) | 4 (70 to less than 90% of herbicidal effect and crop phytotoxicity) | 5 (90% or more of herbicidal effect and crop phytotoxicity) | 4 (70 to less than 90% of herbicidal effect and crop phytotoxicity) | 4 (70 to less than 90% of herbicidal effect and crop phytotoxicity) | 5 (90% or more of herbicidal effect and crop phytotoxicity) | 5 (90% or more of herbicidal effect and crop phytotoxicity)
4 | COc1ccc(-n2c(C(F)(F)F)ccc(C(=O)c3cnn(C)c3O)c2=O)cc1OC [IV-77] | 5 (90% or more of herbicidal effect and crop phytotoxicity) | 5 (90% or more of herbicidal effect and crop phytotoxicity) | 5 (90% or more of herbicidal effect and crop phytotoxicity) | 3 (50 to less than 70% of herbicidal effect and crop phytotoxicity) | 5 (90% or more of herbicidal effect and crop phytotoxicity) | 5 (90% or more of herbicidal effect and crop phytotoxicity) | 5 (90% or more of herbicidal effect and crop phytotoxicity)
5 | CCCS(=O)(=O)Oc1c(C(=O)c2ccc(C(F)(F)F)n(-c3ccc4c(c3)OCO4)c2=O)cnn1C(C)C [IV-100] | 5 (90% or more of herbicidal effect and crop phytotoxicity) | 5 (90% or more of herbicidal effect and crop phytotoxicity) | 5 (90% or more of herbicidal effect and crop phytotoxicity) | 5 (90% or more of herbicidal effect and crop phytotoxicity) | 5 (90% or more of herbicidal effect and crop phytotoxicity) | 4 (70 to less than 90% of herbicidal effect and crop phytotoxicity) | 5 (90% or more of herbicidal effect and crop phytotoxicity)
6 | Cn1ncc(C(=O)c2ccc(C(F)(F)F)n(Cc3c(C(F)(F)F)nn(C)c3OC(F)F)c2=O)c1O [IV-108] | 5 (90% or more of herbicidal effect and crop phytotoxicity) | 4 (70 to less than 90% of herbicidal effect and crop phytotoxicity) | 5 (90% or more of herbicidal effect and crop phytotoxicity) | 4 (70 to less than 90% of herbicidal effect and crop phytotoxicity) | 4 (70 to less than 90% of herbicidal effect and crop phytotoxicity) | 4 (70 to less than 90% of herbicidal effect and crop phytotoxicity) | 5 (90% or more of herbicidal effect and crop phytotoxicity)
7 | Cn1ncc(C(=O)c2ccc(C(F)(F)F)n(CC3CCCO3)c2=O)c1OCc1c(F)cccc1F (stereo not drawn) [IV-136] | 5 (90% or more of herbicidal effect and crop phytotoxicity) | 5 (90% or more of herbicidal effect and crop phytotoxicity) | 5 (90% or more of herbicidal effect and crop phytotoxicity) | 4 (70 to less than 90% of herbicidal effect and crop phytotoxicity) | 4 (70 to less than 90% of herbicidal effect and crop phytotoxicity) | 5 (90% or more of herbicidal effect and crop phytotoxicity) | 4 (70 to less than 90% of herbicidal effect and crop phytotoxicity)
8 | Cc1ccc(C(=O)COc2c(C(=O)c3ccc(C(F)(F)F)n(CC4CCCO4)c3=O)cnn2C)cc1 (stereo not drawn) [IV-139] | 5 (90% or more of herbicidal effect and crop phytotoxicity) | 5 (90% or more of herbicidal effect and crop phytotoxicity) | 5 (90% or more of herbicidal effect and crop phytotoxicity) | 4 (70 to less than 90% of herbicidal effect and crop phytotoxicity) | 5 (90% or more of herbicidal effect and crop phytotoxicity) | 5 (90% or more of herbicidal effect and crop phytotoxicity) | 5 (90% or more of herbicidal effect and crop phytotoxicity)
9 | Cn1ncc(C(=O)c2ccc(C(F)(F)F)n(CC3CCCO3)c2=O)c1OS(=O)(=O)c1ccc([N+](=O)[O-])cc1 (stereo not drawn) [IV-142] | 5 (90% or more of herbicidal effect and crop phytotoxicity) | 5 (90% or more of herbicidal effect and crop phytotoxicity) | 5 (90% or more of herbicidal effect and crop phytotoxicity) | 5 (90% or more of herbicidal effect and crop phytotoxicity) | 5 (90% or more of herbicidal effect and crop phytotoxicity) | 5 (90% or more of herbicidal effect and crop phytotoxicity) | 5 (90% or more of herbicidal effect and crop phytotoxicity)
10 | C=C(C)Cn1c(C(F)(F)F)ccc(C(=O)c2cnn(C)c2OC(C)=O)c1=O [IV-180] | 5 (90% or more of herbicidal effect and crop phytotoxicity) | 5 (90% or more of herbicidal effect and crop phytotoxicity) | 5 (90% or more of herbicidal effect and crop phytotoxicity) | 4 (70 to less than 90% of herbicidal effect and crop phytotoxicity) | 5 (90% or more of herbicidal effect and crop phytotoxicity) | 5 (90% or more of herbicidal effect and crop phytotoxicity) | 5 (90% or more of herbicidal effect and crop phytotoxicity)
11 | COc1ccccc1COc1c(C(=O)c2ccc(C(F)(F)F)n(C)c2=O)cnn1C [IV-193] | 5 (90% or more of herbicidal effect and crop phytotoxicity) | 5 (90% or more of herbicidal effect and crop phytotoxicity) | 5 (90% or more of herbicidal effect and crop phytotoxicity) | 4 (70 to less than 90% of herbicidal effect and crop phytotoxicity) | 3 (50 to less than 70% of herbicidal effect and crop phytotoxicity) | 5 (90% or more of herbicidal effect and crop phytotoxicity) | 5 (90% or more of herbicidal effect and crop phytotoxicity)
12 | CCn1ncc(C(=O)c2ccc(C(F)(F)F)n(C)c2=O)c1OC(C)=O [IV-208] | 5 (90% or more of herbicidal effect and crop phytotoxicity) | 5 (90% or more of herbicidal effect and crop phytotoxicity) | 5 (90% or more of herbicidal effect and crop phytotoxicity) | 4 (70 to less than 90% of herbicidal effect and crop phytotoxicity) | 5 (90% or more of herbicidal effect and crop phytotoxicity) | 5 (90% or more of herbicidal effect and crop phytotoxicity) | 5 (90% or more of herbicidal effect and crop phytotoxicity)
